How the values were obtained:
[1] = system: MTB strains (Beijing family, wild-type parent and rpoB H445D rifampicin-resistant isolate); type: cell-based, Mycobacterium tuberculosis
[2] = system: MTB strains (Haarlem family, wild-type parent and rpoB S450L rifampicin-resistant isolate); type: cell-based, Mycobacterium tuberculosis

Row | Compound | drug susceptibility [1] | drug susceptibility [2] | MIC [1] [µg/mL]
1 | CC[C@@H](CO)NCCN[C@@H](CC)CO [ethambutol] | susceptible | susceptible | 
2 | NNC(=O)c1ccncc1 [isoniazid] | susceptible | susceptible | < 0.2
3 | NC(=O)c1cnccn1 [pyrazinamide] | susceptible | susceptible | 

From patent US20140349320A1, “Using Adaptive Immunity to Detect Drug Resistance” (The Trustees of the University of Pennsylvania, priority 2011, published 2014)
